Values joined by “and” are separate entries in the source; they are usually repeats but may differ in a detail not shown here. Equal values may be shown once.
Legend:
[1] = molecular target: T1, Inhibitor of nuclear factor kappa-B kinase subunit alpha (Homo sapiens) (UniProt O15111); conditions: at 1 µM
T1 sequence (whole entry): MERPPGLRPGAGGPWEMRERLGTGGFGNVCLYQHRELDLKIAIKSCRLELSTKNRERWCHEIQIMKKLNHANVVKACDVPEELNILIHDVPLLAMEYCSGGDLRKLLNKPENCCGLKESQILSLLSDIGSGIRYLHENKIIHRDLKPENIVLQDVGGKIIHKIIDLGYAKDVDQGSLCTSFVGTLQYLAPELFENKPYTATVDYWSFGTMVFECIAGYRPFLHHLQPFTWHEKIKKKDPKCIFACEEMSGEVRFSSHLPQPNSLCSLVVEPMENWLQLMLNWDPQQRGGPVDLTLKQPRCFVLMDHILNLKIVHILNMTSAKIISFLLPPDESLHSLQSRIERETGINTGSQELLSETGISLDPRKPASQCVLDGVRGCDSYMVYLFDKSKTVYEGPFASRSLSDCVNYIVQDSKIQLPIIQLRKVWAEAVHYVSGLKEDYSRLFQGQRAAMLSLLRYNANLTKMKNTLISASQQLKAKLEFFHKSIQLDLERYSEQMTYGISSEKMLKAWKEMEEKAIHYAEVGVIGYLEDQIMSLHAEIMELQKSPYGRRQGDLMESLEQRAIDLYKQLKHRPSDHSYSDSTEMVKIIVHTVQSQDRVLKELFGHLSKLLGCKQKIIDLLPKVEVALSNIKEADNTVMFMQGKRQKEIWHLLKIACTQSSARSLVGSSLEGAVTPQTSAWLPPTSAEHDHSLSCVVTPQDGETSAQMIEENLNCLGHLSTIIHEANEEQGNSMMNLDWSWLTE

[2] = molecular target: T2, Serine/threonine-protein kinase TBK1 (Homo sapiens) (UniProt Q9UHD2); conditions: at 1 µM
T2 sequence (whole entry): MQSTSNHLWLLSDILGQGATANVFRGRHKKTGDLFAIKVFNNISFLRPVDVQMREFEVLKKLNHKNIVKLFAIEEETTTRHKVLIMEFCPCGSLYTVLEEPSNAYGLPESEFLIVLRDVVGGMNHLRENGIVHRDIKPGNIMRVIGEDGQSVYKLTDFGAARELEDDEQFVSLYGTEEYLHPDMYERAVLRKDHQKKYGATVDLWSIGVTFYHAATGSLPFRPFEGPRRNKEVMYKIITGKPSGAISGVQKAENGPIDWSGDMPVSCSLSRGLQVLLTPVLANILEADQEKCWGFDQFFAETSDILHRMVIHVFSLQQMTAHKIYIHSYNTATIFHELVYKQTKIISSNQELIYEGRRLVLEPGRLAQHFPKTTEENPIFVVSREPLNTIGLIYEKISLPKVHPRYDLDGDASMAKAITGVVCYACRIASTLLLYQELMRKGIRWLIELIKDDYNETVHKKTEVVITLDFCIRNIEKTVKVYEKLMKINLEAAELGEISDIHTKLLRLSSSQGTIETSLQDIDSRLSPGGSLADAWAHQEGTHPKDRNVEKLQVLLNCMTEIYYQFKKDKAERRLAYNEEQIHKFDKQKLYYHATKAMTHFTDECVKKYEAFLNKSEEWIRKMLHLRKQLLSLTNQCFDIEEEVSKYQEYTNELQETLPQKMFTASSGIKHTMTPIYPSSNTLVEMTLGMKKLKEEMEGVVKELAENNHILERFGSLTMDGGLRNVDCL

SMILES | inhibition [1] | inhibition [2]
CN1CCC(C(=O)Nc2n[nH]c3nnc(-c4ccccc4)cc23)CC1 | 3% | -3% and -7%
Nc1ncnc2occ(-c3ccc(NC(=O)Nc4cccc(C(F)(F)F)c4)cc3)c12 | 3% | 0% and -1%
C[C@@H](Oc1cc(-n2cnc3ccc(OCC4CCN(C)CC4)cc32)sc1C(N)=O)c1ccccc1C(F)(F)F | 3% | 11% and 4%
COC(=O)c1ccc2c(c1)C(=Cc1cc(Br)c(O)c(Br)c1)C(=O)N2 | -7% | 36%
CS(=O)(=O)CCNCc1ccc(-c2ccc3ncnc(Nc4ccc(OCc5ccccc5)c(Cl)c4)c3c2)o1 | 8% and 2% | -2% and 0%
O=C(Nc1n[nH]c2nnc(-c3cccnc3)cc12)C1CC1 | 5% and 7% | 5% and 3%
Cc1nnc(-c2ccc(C)c(-c3ccc(C(=O)Nc4cccc(C#N)c4)cc3)c2)o1 | -1% and 3% | -2%
COc1cc(Nc2ncc(-c3ccccc3)o2)cc(OC)c1OC | 1% and 0% | 35% and 27%
COc1ccc2[nH]c3c4[nH]c5ccc(OC)cc5c4c4c(c3c2c1)C(=O)NC4=O | 12% and 13% | 55% and 56%
O=C(NCC1CC1)c1ccc(-c2cccc(C(=O)NC3CC3)c2)cc1 | -4% and -5% | 2% and 1%
Fc1ccc(-c2nn3ccccc3c2-c2ccncc2)cc1 | 7% and 5% | -4% and -8%
CCc1ccc(Oc2nccc(-c3c(-c4ccc(F)cc4)ncn3C3CCNCC3)n2)cc1 | 3% and 2% | -6% and -3%
COc1cccc(-n2cnc3c(N/N=C/c4ccncc4)ncnc32)c1 | 2% and -3% | 4% and -1%
CNC(=O)c1cncc(/C=C/c2ccccc2C)c1 | 4% and -3% | 2% and 5%
NS(=O)(=O)c1ccc(Nc2ncc(-c3ccccc3)o2)cc1 | 4% and 3% | 10% and 5%

Now from value to compound:

inhibition [1] | inhibition [2] | SMILES
-3% and 1% | 9% and 8% | COc1cc(/C=N/Nc2ncnc3c2cnn3C(C)C)ccc1O
40% and 38% | 6% and 5% | NCc1ccc(-n2c(-c3nonc3N)nc3cnccc32)cc1
29% and 33% | 8% | Nc1nonc1-c1nc2cnccc2n1C1CC1
6% and 5% | 23% and 19% | CCn1c(-c2nonc2N)nc2c(C#CC(C)(C)O)nc(OCCNC)cc21
-3% | -4% and -1% | CCn1cc(-c2ccnc3[nH]ccc23)c(-c2cccc(NC(=O)Nc3ccc(OCc4ccccc4)cc3)c2)n1
1% | 3% and 2% | CN(c1ccc(NC(=O)NCCN2CCOCC2)cc1)c1ccnc(Nc2ccc(CS(C)(=O)=O)cc2)n1
1% | 5% and 8% | Cc1nc(-c2ccccc2)n2nc(NCCCN3CCOCC3)ncc12

Reference: ChEMBL document CHEMBL2007661, “Compounds: GSK PKIS; Assays: UNC Frye lab” (2012)
